Data as given in a melting point compilation (Tetko et al.; mined from patent text by program, amines drawn as free bases though some values may be those of a salt).

Compound | melting point
COc1cncnc1N1CCN(CCCc2c[nH]c3ccc(Nc4cc(=O)c4=O)cc23)CC1C (configuration not stated) | 191 to 193 °C
Nc1nc(NCc2ccccc2)c2ncn(C3CC(F)C(CO)O3)c2n1 (configuration not stated) | 90 to 94 °C
Cc1c(C(=O)Nc2ccc(N3CCC(N4CCOCC4)CC3)c(Br)c2)cnn1-c1ccc(Cl)cc1 | 205 to 210 °C
Cc1c(NC(=O)c2ccc(OC[C@@H]3CCCO3)cc2)ccc2cc(CNC[C@H]3CCCO3)cnc12 | 92 to 94 °C
CCCN(CC(=O)NC12CC3CC(CC(C3)C1)C2)C(=O)NCCCc1ccncc1 | 132 °C
Oc1ccc(Cl)cc1C(O)(C1CCCCC1)C1CCCCC1 | 230 °C
N#Cc1cc(F)c(Sc2nc[nH]n2)cc1F | 185 °C
CC(C)c1noc(-c2ncn3c2nc(N2CCOCC2)c2cc(F)ccc23)n1 | 262 to 264 °C
CC(C)C(=O)[C@H]1CCn2c(cc3ccccc32)C1 | 78 to 79 °C
COc1cccc(NC(=O)NC2N=C(c3ccccc3)c3cccc(C)c3N(C)C2=O)c1 (configuration not stated) | 215 to 217 °C
CCCCCCCCCCCCCCC(=O)C(=O)NCCCC(=O)OCC | 63 to 64 °C
Cc1ccc(C(=O)c2cccc3c2CCC3=O)cc1 | 105 to 108 °C
O=C(O)c1cn(C2CC2)c2nc(N3Cc4cccc(CO)c4C3)c(F)cc2c1=O | > 300 °C
COc1ccc(-c2[nH]c(-c3ccncc3)c(C)c2C(C)=O)cc1 | 185 to 186 °C
CCc1cc2c(O)c(C(=O)O)cnc2s1 | 238 to 239 °C
O=C(O)C=C1COc2ccccc2C1=O | 134 to 136 °C
CCC(O)(c1cc(F)cc(Sc2ccc3c(-c4ccoc4)cc(C#N)cc3c2)c1)c1nccs1 (configuration not stated) | 120 to 122 °C
O=[N+]([O-])c1ccc2c(c1)C(O)c1cccnc1CC2 (configuration not stated) | 222 to 223 °C
CCCCCCC(N)C(C)O (configuration not stated) | 81 to 86 °C
CC(=O)Cc1c(C)nc2ccccc2c1N | 130 to 133 °C
CN1CC(CN2CC(=O)NC2=O)C=C2c3cccc4[nH]cc(c34)CC21 (configuration not stated) | 282 to 284 °C
Cc1ccccc1NC(=O)/C=C/C=C/CC1CCc2c(cccc2C(F)(F)F)C1 (configuration not stated) | 171 °C
O=Cc1c(Cl)cc(Cl)cc1OCc1ccccc1 | 98 to 100 °C
Cn1c(=O)c2c(nc(/C=C/c3ccc4c(c3)OCO4)n2C)n(C)c1=O | > 300 °C

Compound | melting point
CC1(C)CC(CN2CCCNC2=N[N+](=O)[O-])CO1 (configuration not stated) | 109 to 110 °C
N#CC1CN1C(=O)NC(=O)c1ccc2ccccc2c1 (configuration not stated) | 164 to 166 °C
CCOC(=O)C1=C(COCC2CO2)NC(C)=C(C(=O)OC)C1c1cccc(Cl)c1Cl (configuration not stated) | 103 to 104 °C
CC(C)(C)[N+]([O-])=Cc1c(O)cc(O)cc1O | 190 °C
Brc1cncc2ncc(Br)n12 | 150 °C
COc1nc(S(C)(=O)=O)cnc1NS(=O)(=O)c1cccc(Cl)c1Cl | 237 to 238 °C
CCOc1nn(Cc2ccc(OCc3nc(-c4ccccc4)oc3C)cc2)cc1CC(=O)O | 125 to 126 °C
Nc1ccc(C(=O)N2CCOCC2)cc1OCc1ccc(-c2ccccc2-c2nnnn2C(c2ccccc2)(c2ccccc2)c2ccccc2)cc1 | 95 to 105 °C
CCc1ccc(C#Cc2ccc(C=O)cc2)cc1 | 117 °C
O=C1c2cccc(NC(=S)Nc3ccccn3)c2C2CC3(CCN12)SCCS3 (configuration not stated) | 142 °C
N#CN1CCN(c2nn(S(=O)(=O)c3ccccc3)c3cc(Cl)ccc23)CC1 | 179 to 181 °C
Fc1ccc(-c2nc(-c3ccccc3)cn2-c2ccncc2)cc1 | 90 to 92 °C
CCCCCCCCCCCCCOCCCCO | 26 to 29 °C
CCOC(=O)c1cnc(O)nc1Cc1ccccc1 | 57 to 61 °C
COC(=O)c1ncn(C2OC(COC(C)=O)C(OC(C)=O)C2OC(C)=O)n1 (configuration not stated) | 107 to 109 °C
O=c1c2ccccc2c(-c2ccccc2)cn1CCCCl | 138 °C
Cc1cc(C=NNC(=O)c2ccc(O)cc2)oc1C | 251 °C
COc1cccc2c1OC(C(=O)Nc1ccncc1)C2CC(=O)O (configuration not stated) | 227 to 233 °C
NC(=S)NN=C(CNC(=O)Cc1ccccc1)c1ccccc1 | 170 to 172 °C
COc1ccc(C2SC(=O)NC2=O)cc1C(=O)NCc1ccc(C(F)(F)F)cc1 (configuration not stated) | 168 to 169 °C
COc1ccc(-n2nc(C(F)F)cc2-c2ccc(S(C)(=O)=O)cc2)cc1F | 185 to 186 °C
Cc1ccc(F)c2c1N(CC1CCCO1)C(=O)C21COc2cc3c(cc21)CCO3 (configuration not stated) | 175 to 176 °C
COC(=O)C(=CNc1cc(-c2cccc(Cl)c2)sc1C(=O)O)SC | 84 to 86 °C
COC(=O)c1ccc([C@H]2CCN(Cc3ccccc3)C[C@@H]2O)cc1 (racemic) | 103 to 104 °C

Compound | melting point
Cc1cc(Cl)c2c(c1)C(=O)N(C(C)(C)C)CC(=O)N2 | 151 to 152 °C
CC(=NNc1ccccc1)c1ccc(N2CCN(c3c(C)nc(N)nc3N)CC2)cc1 | 239 to 241 °C
O=C(NC1C2CC3CC(C2)CC1C3)N1CCC2(C=Cc3ccccc32)CC1 (configuration not stated) | 189 to 191 °C
CCN(CC)c1nc(Cl)nc2c(SC)ncnc12 | 90 to 91 °C
O=c1[nH]nnn1-c1cc(C(F)(F)F)cc(C(F)(F)F)c1 | 145 to 147 °C
CCC(CC)n1c(=O)ccc2cnc(S(C)=O)nc21 (configuration not stated) | 111 to 114 °C
N#Cc1ccc(-c2ccc3c(c2)C2(CCCCC2)C(=O)N3)cc1F | 258 to 260 °C
COc1cc2cc(C(=O)N3CC(CCl)c4c3cc(OCc3ccccc3)c3ncccc43)[nH]c2c(OC)c1OC (configuration not stated) | 182 to 184 °C
CS(=O)(=O)Cc1cc(N)ccc1N1C(=O)c2ccc(Cl)cc2C1=O | 228 to 230 °C
CSCC(=O)[C@H](Cc1ccccc1)NC(=O)[C@H](CC(C)C)NC(=O)CCc1ccccc1 | 104 to 107 °C
CCCCCCC(C(=O)N[C@@H](CC(=O)O)C(=O)O)n1cnc2cc(-c3ccccc3-c3nn[nH]n3)ccc21 (some centres not stated) | 190 to 195 °C
O=C(NCCCO)C1=C(C(=O)Nc2ccc(Cl)cc2F)CCCC1 | 138 °C
Cc1ccc2[nH]c(=O)n(CCS)c(=O)c2c1 | 309 to 311 °C
CN1CC(C)(CCCl)Oc2ncccc2C1=S (configuration not stated) | 119 to 121 °C
CCCOc1cc(CCCOc2c(CC(=O)O)cccc2OC)n(Cc2ccccc2OC)n1 | 79 to 82 °C
Cc1c2c(c(C)c3c1NCC3)OC(C)(C)C2 | 105 to 107 °C
COc1cc(OC)c2c(=O)[nH]c(-c3ccc(N4CCN(C)CC4)cc3)nc2c1 | 252 to 254 °C
COc1ccc(C=CC(=O)c2ccc(OC)cc2O)cc1 | 108 °C
COc1cc(/C=C/C(=O)c2ccc(C(=O)O)cc2)cc(-c2cccs2)c1OC | 231 °C
c1ccc2c(c1)C(=NOCCN1CCOCC1)c1ccccc1C1CC21 (configuration not stated) | 90 to 91 °C
COc1ccc(-c2cc3ccccc3[nH]2)cc1N | 208 to 209 °C
COc1ccc(S(=O)(=O)C(CCCCc2ccccc2)(CC(=O)O)c2ccccc2)cc1 (configuration not stated) | 75 to 78 °C
Nc1sc2c(c1C(=O)c1cccc(C(F)(F)F)c1)CCN(CCc1ccccc1)C2 | 137 to 138 °C
c1ccc(CN2CCc3c(sc4nc5ccccc5n34)C2)cc1 | 124 to 129 °C
